Results as given in patent publication US9029531B2 (Agios Pharmaceuticals, Inc., priority 2012, dated 2015).

molecular target: T1, glutaminase (GAC) (Homo sapiens, UniProt O94925); assay: Glutaminase coupled endpoint enzymatic assay (Example A); assay type: biochemical; conditions: inhibition of glutaminase; assay of Example A or Example B
T1 sequence (O94925 55-598 isoform O94925-3 limits assumed): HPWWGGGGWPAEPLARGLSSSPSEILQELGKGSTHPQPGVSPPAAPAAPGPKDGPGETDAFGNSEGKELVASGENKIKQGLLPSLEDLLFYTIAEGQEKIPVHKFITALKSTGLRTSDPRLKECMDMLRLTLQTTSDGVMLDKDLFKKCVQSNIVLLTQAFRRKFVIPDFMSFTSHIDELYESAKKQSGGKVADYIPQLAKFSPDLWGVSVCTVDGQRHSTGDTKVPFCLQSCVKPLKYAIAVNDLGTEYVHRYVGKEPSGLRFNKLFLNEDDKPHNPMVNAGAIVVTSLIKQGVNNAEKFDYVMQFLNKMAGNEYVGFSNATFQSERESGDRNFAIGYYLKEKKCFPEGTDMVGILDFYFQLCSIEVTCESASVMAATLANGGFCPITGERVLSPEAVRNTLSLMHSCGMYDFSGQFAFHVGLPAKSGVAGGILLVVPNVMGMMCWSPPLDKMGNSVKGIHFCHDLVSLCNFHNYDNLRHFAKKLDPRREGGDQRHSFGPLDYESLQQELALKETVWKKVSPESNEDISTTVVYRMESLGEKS
How it was run: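 Endpoint coupled assay: glutamate formed by GAC drives GDH NADH production, recycled by diaphorase reducing resazurin to fluorescent resorufin (Ex544/Em590) after SDS stop. Buffer pH 8.5 with phosphate; glutamine at Km; enzyme preincubated with compound 60 min at room temperature.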

Row | Compound | IC50
1 | NCc1cccc(CC(=O)Nc2nnc([C@H]3CCC[C@H](c4nnc(NC(=O)Cc5cccc(CN)c5)s4)C3)s2)c1 [Compound 245, N,N′-(5,5′-((1S,3S)-cyclohexane-1,3-diyl)bis(1,3,4-thiadiazole-5,2-diyl))bis(2-(3-(aminomethyl)phenyl)acetamide)] | < 100 nM
2 | NCc1ccc(CC(=O)Nc2nnc([C@H]3CCC[C@H](c4nnc(NC(=O)Cc5ccc(CN)cc5)s4)C3)s2)cc1 [Compound 246, N,N′-(5,5′-((1S,3S)-cyclohexane-1,3-diyl)bis(1,3,4-thiadiazole-5,2-diyl))bis(2-(4-(aminomethyl)phenyl)acetamide)] | < 100 nM
3 | CCOc1ccnc(CC(=O)Nc2nnc([C@H]3CCC[C@H](c4nnc(NC(=O)Cc5cc(OCC)ccn5)s4)C3)s2)c1 [Compound 247, N,N′-(5,5′-((1S,3S)-cyclohexane-1,3-diyl)bis(1,3,4-thiadiazole-5,2-diyl))bis(2-(4-ethoxypyridin-2-yl)acetamide)] | < 100 nM
4 | COc1ccc(F)c(CC(=O)Nc2nnc([C@H]3CCC[C@H](c4nnc(NC(=O)Cc5cc(OC)ccc5F)s4)C3)s2)c1 [Compound 248, N,N′-(5,5′-((1S,3S)-cyclohexane-1,3-diyl)bis(1,3,4-thiadiazole-5,2-diyl))bis(2-(2-fluoro-5-methoxyphenyl)acetamide)] | < 100 nM
5 | CC(=O)Nc1nnc([C@H]2CCC[C@H](c3nnc(NC(=O)Cc4ccc(N5CC(F)(F)C5)cn4)s3)C2)s1 [Compound 253, N-(5-((1S,3S)-3-(5-acetamido-1,3,4-thiadiazol-2-yl)cyclohexyl)-1,3,4-thiadiazol-2-yl)-2-(5-(3,3-difluoroazetidin-1-yl)pyridin-2-yl)acetamide] | 100 to 500 nM
6 | CN1CCN(c2cccc(CC(=O)Nc3nnc([C@H]4CCC[C@H](c5nnc(NC(=O)Cc6cccc(N7CCN(C)CC7)c6)s5)C4)s3)c2)CC1 [Compound 259] | 100 to 500 nM
7 | O=C(Cc1cccc(N2CCCC2)c1)Nc1nnc([C@H]2CCC[C@H](c3nnc(NC(=O)Cc4cccc(N5CCCC5)c4)s3)C2)s1 [Compound 260, N,N′-(5,5′-((1S,3S)-cyclohexane-1,3-diyl)bis(1,3,4-thiadiazole-5,2-diyl))bis(2-(3-(pyrrolidin-1-yl)phenyl)acetamide)] | 100 to 500 nM
8 | O=C(Cc1cccc(NC2CC2)c1)Nc1nnc([C@H]2CCC[C@H](c3nnc(NC(=O)Cc4cccc(NC5CC5)c4)s3)C2)s1 [Compound 261, N,N′-(5,5′-((1S,3S)-cyclohexane-1,3-diyl)bis(1,3,4-thiadiazole-5,2-diyl))bis(2-(3-(cyclopropylamino)phenyl)acetamide)] | < 100 nM
9 | O=C(Cc1cccc(N2CCOCC2)c1)Nc1nnc([C@H]2CCC[C@H](c3nnc(NC(=O)Cc4cccc(N5CCOCC5)c4)s3)C2)s1 [Compound 262, N,N′-(5,5′-((1S,3S)-cyclohexane-1,3-diyl)bis(1,3,4-thiadiazole-5,2-diyl))bis(2-(3-morpholinophenyl)acetamide)] | < 100 nM
10 | O=C(Cc1cccc(N2CCNCC2)c1)Nc1nnc([C@H]2CCC[C@H](c3nnc(NC(=O)Cc4cccc(N5CCNCC5)c4)s3)C2)s1 [Compound 263, N,N′-(5,5′-((1S,3S)-cyclohexane-1,3-diyl)bis(1,3,4-thiadiazole-5,2-diyl))bis(2-(3-(piperazin-1-yl)phenyl)acetamide)] | < 100 nM
11 | CNc1cccc(CC(=O)Nc2nnc([C@H]3CCC[C@H](c4nnc(NC(=O)Cc5cccc(NC)c5)s4)C3)s2)c1 [Compound 264, N,N′-(5,5′-((1S,3S)-cyclohexane-1,3-diyl)bis(1,3,4-thiadiazole-5,2-diyl))bis(2-(3-(methylamino)phenyl)acetamide)] | < 100 nM
12 | O=C(Cc1ccc(N2CCOCC2)cc1)Nc1nnc([C@H]2CCC[C@H](c3nnc(NC(=O)Cc4ccc(N5CCOCC5)cc4)s3)C2)s1 [Compound 265, N,N′-(5,5′-((1S,3S)-cyclohexane-1,3-diyl)bis(1,3,4-thiadiazole-5,2-diyl))bis(2-(4-morpholinophenyl)acetamide)] | 100 to 500 nM
13 | O=C(Cc1ccc(N2CC(F)(F)C2)cc1)Nc1nnc([C@H]2CCC[C@H](c3nnc(NC(=O)Cc4ccc(N5CC(F)(F)C5)cc4)s3)C2)s1 [Compound 266, N,N′-(5,5′-((1S,3S)-cyclohexane-1,3-diyl)bis(1,3,4-thiadiazole-5,2-diyl))bis(2-(4-(3,3-difluoroazetidin-1-yl)phenyl)acetamide)] | < 100 nM

The next lines start with the values.

Row | IC50 | Compound
14 | < 100 nM | O=C(Cc1cccc(N2CC(O)C2)n1)Nc1nnc([C@H]2CCC[C@H](c3nnc(NC(=O)Cc4cccc(N5CC(O)C5)n4)s3)C2)s1 [Compound 249, N,N′-(5,5′-((1S,3S)-cyclohexane-1,3-diyl)bis(1,3,4-thiadiazole-5,2-diyl))bis(2-(6-(3-hydroxyazetidin-1-yl)pyridin-2-yl)acetamide)]
15 | 100 to 500 nM | O=C(Cc1cccc(NC2CC(F)(F)C2)n1)Nc1nnc([C@H]2CCC[C@H](c3nnc(NC(=O)Cc4cccc(NC5CC(F)(F)C5)n4)s3)C2)s1 [Compound 250, N,N′-(5,5′-((1S,3S)-cyclohexane-1,3-diyl)bis(1,3,4-thiadiazole-5,2-diyl))bis(2-(6-(3,3-difluorocyclobutylamino)pyridin-2-yl)acetamide)]
16 | < 100 nM | O=C(Cc1cccc(N2CC(F)C2)n1)Nc1nnc([C@H]2CCC[C@H](c3nnc(NC(=O)Cc4cccc(N5CC(F)C5)n4)s3)C2)s1 [Compound 251, N,N′-(5,5′-((1S,3S)-cyclohexane-1,3-diyl)bis(1,3,4-thiadiazole-5,2-diyl))bis(2-(6-(3-fluoroazetidin-1-yl)pyridin-2-yl)acetamide)]
17 | < 100 nM | O=C(Cc1ccc(N2CC(F)(F)C2)cn1)Nc1nnc([C@H]2CCC[C@H](c3nnc(NC(=O)Cc4ccc(N5CC(F)(F)C5)cn4)s3)C2)s1 [Compound 252, N,N′-(5,5′-((1S,3S)-cyclohexane-1,3-diyl)bis(1,3,4-thiadiazole-5,2-diyl))bis(2-(5-(3,3-difluoroazetidin-1-yl)pyridin-2-yl)acetamide)]
18 | 100 to 500 nM | O=C(Cc1cc(N2CCC2)ccn1)Nc1nnc([C@H]2CCC[C@H](c3nnc(NC(=O)Cc4cc(N5CCC5)ccn4)s3)C2)s1 [Compound 254, N,N′-(5,5′-((1S,3S)-cyclohexane-1,3-diyl)bis(1,3,4-thiadiazole-5,2-diyl))bis(2-(4-(azetidin-1-yl)pyridin-2-yl)acetamide)]
19 | 100 to 500 nM | O=C(Cc1cc(N2CC(O)C2)ccn1)Nc1nnc([C@H]2CCC[C@H](c3nnc(NC(=O)Cc4cc(N5CC(O)C5)ccn4)s3)C2)s1 [Compound 255, N,N′-(5,5′-((1S,3S)-cyclohexane-1,3-diyl)bis(1,3,4-thiadiazole-5,2-diyl))bis(2-(4-(3-hydroxyazetidin-1-yl)pyridin-2-yl)acetamide)]
20 | < 100 nM | O=C(Cc1cc(N2CC(F)C2)ccn1)Nc1nnc([C@H]2CCC[C@H](c3nnc(NC(=O)Cc4cc(N5CC(F)C5)ccn4)s3)C2)s1 [Compound 256, N,N′-(5,5′-((1S,3S)-cyclohexane-1,3-diyl)bis(1,3,4-thiadiazole-5,2-diyl))bis(2-(4-(3-fluoroazetidin-1-yl)pyridin-2-yl)acetamide)]
21 | < 100 nM | O=C(Cc1cccc(N2CCC2)c1)Nc1nnc([C@H]2CCC[C@H](c3nnc(NC(=O)Cc4cccc(N5CCC5)c4)s3)C2)s1 [Compound 257, N,N′-(5,5′-((1S,3S)-cyclohexane-1,3-diyl)bis(1,3,4-thiadiazole-5,2-diyl))bis(2-(3-(azetidin-1-yl)phenyl)acetamide)]
22 | 100 to 500 nM | O=C(Cc1cc(N2CC(F)(F)C2)ccn1)Nc1nnc([C@H]2CCC[C@H](c3nnc(NC(=O)Cc4cc(N5CC(F)(F)C5)ccn4)s3)C2)s1 [Compound 258, N,N′-(5,5′-((1S,3S)-cyclohexane-1,3-diyl)bis(1,3,4-thiadiazole-5,2-diyl))bis(2-(4-(3,3-difluoroazetidin-1-yl)pyridin-2-yl)acetamide)]
23 | 100 to 500 nM | O=C(Cc1cccc(N2CCC2)n1)Nc1nnc([C@H]2CCC[C@H](c3nnc(NC(=O)Cc4cccc(N5CCC5)n4)s3)C2)s1 [Compound 267, N,N′-(5,5′-((1S,3S)-cyclohexane-1,3-diyl)bis(1,3,4-thiadiazole-5,2-diyl))bis(2-(6-(azetidin-1-yl)pyridin-2-yl)acetamide)]
24 | < 100 nM | O=C(Cc1cccc(N2CC(F)(F)C2)n1)Nc1nnc([C@H]2CCC[C@H](c3nnc(NC(=O)Cc4cccc(N5CC(F)(F)C5)n4)s3)C2)s1 [Compound 268, N,N′-(5,5′-((1S,3S)-cyclohexane-1,3-diyl)bis(1,3,4-thiadiazole-5,2-diyl))bis(2-(6-(3,3-difluoroazetidin-1-yl)pyridin-2-yl)acetamide)]
25 | 100 to 500 nM | O=C(Cc1cccc(N2CC(F)(F)C2)c1)Nc1nnc([C@H]2CCC[C@H](c3nnc(NC(=O)Cc4cccc(N5CC(F)(F)C5)c4)s3)C2)s1 [Compound 269]
26 | < 100 nM | COC1CN(c2cccc(CC(=O)Nc3nnc([C@H]4CCC[C@H](c5nnc(NC(=O)Cc6cccc(N7CC(OC)C7)n6)s5)C4)s3)n2)C1 [Compound 270, N,N′-(5,5′-((1S,3S)-cyclohexane-1,3-diyl)bis(1,3,4-thiadiazole-5,2-diyl))bis(2-(6-(3-methoxyazetidin-1-yl)pyridin-2-yl)acetamide)]
